Measured values taken from US10941152B2, “Pyrazole compounds as modulators of FSHR and uses thereof” (TOCOPHERX, INC., priority 2014, dated 2021).

Tests used:
[1] = target: T1, FSHR (Homo sapiens, UniProt P23945); experiment: EC50 of cyclic AMP production in CHO FSHR cells + EC20 FSH (Assay A); format: cell-based; conditions: cyclic AMP production in CHO FSHR cells + EC20 FSH (0.265 pM), HTRF
T1 construct: expressed in transfected cells; host or cells: CHO (Cho-FSHR-LUC-1-1-43)
T1 sequence (P23945 18-695): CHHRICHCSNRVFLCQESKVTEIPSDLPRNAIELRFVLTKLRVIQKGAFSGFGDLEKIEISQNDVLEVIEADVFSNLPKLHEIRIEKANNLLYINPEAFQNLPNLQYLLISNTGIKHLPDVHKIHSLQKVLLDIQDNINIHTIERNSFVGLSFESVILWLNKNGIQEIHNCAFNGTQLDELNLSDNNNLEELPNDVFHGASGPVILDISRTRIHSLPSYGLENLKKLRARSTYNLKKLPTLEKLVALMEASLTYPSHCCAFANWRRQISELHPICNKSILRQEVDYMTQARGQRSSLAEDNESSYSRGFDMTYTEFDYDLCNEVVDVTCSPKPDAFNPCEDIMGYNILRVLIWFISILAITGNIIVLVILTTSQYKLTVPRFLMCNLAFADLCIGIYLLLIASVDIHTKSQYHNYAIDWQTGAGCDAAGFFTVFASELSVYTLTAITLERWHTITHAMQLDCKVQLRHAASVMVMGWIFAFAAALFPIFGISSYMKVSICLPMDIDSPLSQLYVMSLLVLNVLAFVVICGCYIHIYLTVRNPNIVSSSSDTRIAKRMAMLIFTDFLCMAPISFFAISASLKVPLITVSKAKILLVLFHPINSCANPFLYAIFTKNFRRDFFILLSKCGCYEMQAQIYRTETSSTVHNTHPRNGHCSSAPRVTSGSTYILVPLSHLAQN
In short: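 CHO cells expressing FSHR, stimulated 1 h at 37° C with compound plus EC20 FSH (0.265 pM final) and 200 μM IBMX. cAMP measured by HTRF (665/620 nm ratio) after 1 h at room temperature; effect expressed relative to maximum response of FSH standard.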

[2] = target: T2, follicle-stimulating hormone (FSH) receptor (Rattus norvegicus, UniProt P20395); experiment: Rat granulosa EC50 FSH (Assay B); format: cell-based
T2 construct: endogenous in cells; host or cells: rat granulosa cells
T2 sequence (P20395 18-692): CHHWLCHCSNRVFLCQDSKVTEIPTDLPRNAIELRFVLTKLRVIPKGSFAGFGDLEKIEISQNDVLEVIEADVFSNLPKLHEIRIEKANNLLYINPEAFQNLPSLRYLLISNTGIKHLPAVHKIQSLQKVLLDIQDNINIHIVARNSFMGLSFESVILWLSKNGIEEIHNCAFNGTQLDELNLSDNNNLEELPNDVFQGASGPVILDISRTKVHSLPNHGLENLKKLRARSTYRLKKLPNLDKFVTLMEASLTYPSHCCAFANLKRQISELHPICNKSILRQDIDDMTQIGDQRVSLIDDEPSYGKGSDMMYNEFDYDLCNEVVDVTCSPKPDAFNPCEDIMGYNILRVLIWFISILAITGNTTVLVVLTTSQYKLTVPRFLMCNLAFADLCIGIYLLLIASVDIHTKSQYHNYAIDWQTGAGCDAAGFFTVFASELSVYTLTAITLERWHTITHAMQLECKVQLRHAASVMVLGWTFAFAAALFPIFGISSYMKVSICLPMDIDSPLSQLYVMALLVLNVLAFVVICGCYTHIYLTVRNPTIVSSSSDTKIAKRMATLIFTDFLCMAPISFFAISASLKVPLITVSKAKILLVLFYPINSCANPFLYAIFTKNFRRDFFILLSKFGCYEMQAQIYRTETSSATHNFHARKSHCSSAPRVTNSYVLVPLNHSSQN
Description: Example 25. Rat granulosa EC50 FSH (Assay B)
The assay was performed pursuant to the teaching of Yanofsky et al. (2006) Allosteric activation of the follicle-stimulating hormone (FSH) receptor by selective, nonpeptide agonists (JBC 281(19): 13226-13233, which is incorporated by reference in the disclosure of the invention).

COc1cc2c(cc1-c1ccccn1)-c1c(c(C(=O)N(C)C(C)(C)C)nn1-c1ccsc1)CO2 [Compound 58, N-tert-butyl-7-methoxy-N-methyl-8-(pyridin-2-yl)-1-(thiophen-3-yl)-1,4-dihydrochromeno[4,3-c]pyrazole-3-carboxamide]
EC50 [1]: 10 to 100 nM | EC50 [2]: > 500 nM

COc1cc2c(cc1-c1cncc(C)c1)-c1c(c(C(=O)N(C)C(C)(C)C)nn1-c1ccsc1)CO2 [Compound 59, N-tert-butyl-7-methoxy-N-methyl-8-(5-methylpyridin-3-yl)-1-(thiophen-3-yl)-1,4-dihydrochromeno[4,3-c]pyrazole-3-carboxamide]
EC50 [1]: 10 to 100 nM | EC50 [2]: > 500 nM

COc1cc2c(cc1-c1cccnc1Cl)-c1c(c(C(=O)N(C)C(C)(C)C)nn1-c1ccsc1)CO2 [Compound 60, N-tert-butyl-8-(2-chloropyridin-3-yl)-7-methoxy-N-methyl-1-(thiophen-3-yl)-1,4-dihydrochromeno[4,3-c]pyrazole-3-carboxamide]
EC50 [1]: < 10 nM | EC50 [2]: 101 to 500 nM

COc1cc2c(cc1-c1cccnc1F)-c1c(c(C(=O)N3CCOCC3(C)C)nn1-c1ccsc1)CO2 [Compound 61, (3,3-dimethylmorpholino)(8-(2-fluoropyridin-3-yl)-7-methoxy-1-(thiophen-3-yl)-1,4-dihydrochromeno[4,3-c]pyrazol-3-yl)methanone]
EC50 [1]: < 10 nM | EC50 [2]: 10 to 100 nM

COc1cc2c(cc1-c1cc(C)cnc1F)-c1c(c(C(=O)N(C)C(C)(C)C)nn1-c1ccsc1)CO2 [Compound 62, N-tert-butyl-8-(2-fluoro-5-methylpyridin-3-yl)-7-methoxy-N-methyl-1-(thiophen-3-yl)-1,4-dihydrochromeno[4,3-c]pyrazole-3-carboxamide]
EC50 [1]: < 10 nM | EC50 [2]: 10 to 100 nM

COc1cc2c(cc1-c1ccccc1F)-c1c(c(C(=O)N(C)C(C)(C)C)nn1-c1ccsc1)CO2 [Compound 63, N-tert-butyl-8-(2-fluorophenyl)-7-methoxy-N-methyl-1-(thiophen-3-yl)-1,4-dihydrochromeno[4,3-c]pyrazole-3-carboxamide]
EC50 [1]: 10 to 100 nM | EC50 [2]: 101 to 500 nM

COc1cc2c(cc1-c1ccn(C)n1)-c1c(c(C(=O)N(C)C(C)(C)C)nn1-c1cc(Cl)cc(C(F)(F)F)c1)CO2 [Compound 64, N-tert-butyl-1-(3-chloro-5-(trifluoromethyl)phenyl)-7-methoxy-N-methyl-8-(1-methyl-1H-pyrazol-3-yl)-1,4-dihydrochromeno[4,3-c]pyrazole-3-carboxamide]
EC50 [1]: 10 to 100 nM | EC50 [2]: 101 to 500 nM

COC(=O)c1cc(-c2cc3c(cc2OC)OCc2c(C(=O)N(C)C(C)(C)C)nn(-c4cc(F)cc(F)c4)c2-3)cnc1N [Compound 65, methyl 2-amino-5-(3-(tert-butyl(methyl)carbamoyl)-1-(3,5-difluorophenyl)-7-methoxy-1,4-dihydrochromeno[4,3-c]pyrazol-8-yl)nicotinate]
EC50 [1]: < 10 nM | EC50 [2]: 10 to 100 nM

COc1cc2c(cc1-c1cncc(S(N)(=O)=O)c1)-c1c(c(C(=O)N(C)C(C)(C)C)nn1-c1cc(Cl)cc(Cl)c1)CO2 [Compound 66, N-tert-butyl-1-(3,5-dichlorophenyl)-7-methoxy-N-methyl-8-(5-sulfamoylpyridin-3-yl)-1,4-dihydrochromeno[4,3-c]pyrazole-3-carboxamide]
EC50 [1]: < 10 nM | EC50 [2]: 10 to 100 nM

COc1cc2c(cc1-c1cnn(CC(N)=O)c1)-c1c(c(C(=O)N(C)C(C)(C)C)nn1-c1cc(Cl)cc(Cl)c1)CO2 [Compound 67, 8-(1-(2-amino-2-oxoethyl)-1H-pyrazol-4-yl)-N-tert-butyl-1-(3,5-dichlorophenyl)-7-methoxy-N-methyl-1,4-dihydrochromeno[4,3-c]pyrazole-3-carboxamide]
EC50 [1]: < 10 nM | EC50 [2]: 101 to 500 nM

COc1cc2c(cc1-c1cc(C(N)=O)ncc1F)-c1c(c(C(=O)N(C)C(C)(C)C)nn1-c1cc(Cl)cc(Cl)c1)CO2 [Compound 68, N-tert-butyl-8-(2-carbamoyl-5-fluoropyridin-4-yl)-1-(3,5-dichlorophenyl)-7-methoxy-N-methyl-1,4-dihydrochromeno[4,3-c]pyrazole-3-carboxamide]
EC50 [1]: < 10 nM | EC50 [2]: 101 to 500 nM

COc1cc2c(cc1-c1cnn(CC(N)=O)c1)-c1c(c(C(=O)N3CCOCC3(C)C)nn1-c1cc(F)cc(Cl)c1)CO2 [Compound 69, 2-(4-(1-(3-chloro-5-fluorophenyl)-3-(3,3-dimethylmorpholine-4-carbonyl)-7-methoxy-1,4-dihydrochromeno[4,3-c]pyrazol-8-yl)-1H-pyrazol-1-yl)acetamide]
EC50 [1]: < 10 nM | EC50 [2]: 10 to 100 nM

COc1cc2c(cc1-c1cc(C(N)=O)ncc1F)-c1c(c(C(=O)N(C)C(C)(C)C)nn1-c1cc(F)cc(F)c1)CO2 [Compound 70, N-tert-butyl-8-(2-carbamoyl-5-fluoropyridin-4-yl)-1-(3,5-difluorophenyl)-7-methoxy-N-methyl-1,4-dihydrochromeno[4,3-c]pyrazole-3-carboxamide]
EC50 [1]: < 10 nM | EC50 [2]: 10 to 100 nM

COc1cc2c(cc1-c1cnn(CC(N)=O)c1)-c1c(c(C(=O)N3CC[S+]([O-])CC3(C)C)nn1-c1cc(F)cc(F)c1)CO2 (stereo not shown) [Compound 71]
EC50 [1]: 10 to 100 nM | EC50 [2]: 101 to 500 nM

COc1cc2c(cc1-c1cc(C(N)=O)ncc1F)-c1c(c(C(=O)N3CCOCC3(C)C)nn1-c1cc(F)cc(F)c1)CO2 [Compound 72, 4-(1-(3,5-difluorophenyl)-3-(3,3-dimethylmorpholine-4-carbonyl)-7-methoxy-1,4-dihydrochromeno[4,3-c]pyrazol-8-yl)-5-fluoropicolinamide]
EC50 [1]: < 10 nM | EC50 [2]: 10 to 100 nM

COc1cc(F)cc(-n2nc(C(=O)N3CCOCC3(C)C)c3c2-c2cc(-c4cnn(CC(N)=O)c4)c(OC)cc2OC3)c1 [Compound 73, 2-(4-(3-(3,3-dimethylmorpholine-4-carbonyl)-1-(3-fluoro-5-methoxyphenyl)-7-methoxy-1,4-dihydrochromeno[4,3-c]pyrazol-8-yl)-1H-pyrazol-1-yl)acetamide]
EC50 [1]: < 10 nM | EC50 [2]: 101 to 500 nM

COc1cc(F)cc(-n2nc(C(=O)N3CCOCC3(C)C)c3c2-c2cc(-c4cnn(CCO)c4)c(OC)cc2OC3)c1 [Compound 74, (3,3-dimethylmorpholino)(1-(3-fluoro-5-methoxyphenyl)-8-(1-(2-hydroxyethyl)-1H-pyrazol-4-yl)-7-methoxy-1,4-dihydrochromeno[4,3-c]pyrazol-3-yl)methanone]
EC50 [1]: < 10 nM | EC50 [2]: 10 to 100 nM

COc1cc2c(cc1-c1cc(CO)ncc1F)-c1c(c(C(=O)N(C)C(C)(C)C)nn1-c1cc(F)cc(F)c1)CO2 [Compound 75, N-tert-butyl-1-(3,5-difluorophenyl)-8-(5-fluoro-2-(hydroxymethyl)pyridin-4-yl)-7-methoxy-N-methyl-1,4-dihydrochromeno[4,3-c]pyrazole-3-carboxamide]
EC50 [1]: 10 to 100 nM | EC50 [2]: 10 to 100 nM

COc1cc2c(cc1-c1cnn(CCO)c1)-c1c(c(C(=O)N(C)C(C)(C)C)nn1-c1ccsc1)CO2 [Compound 76, N-tert-butyl-8-(1-(2-hydroxyethyl)-1H-pyrazol-4-yl)-7-methoxy-N-methyl-1-(thiophen-3-yl)-1,4-dihydrochromeno[4,3-c]pyrazole-3-carboxamide]
EC50 [1]: 10 to 100 nM | EC50 [2]: > 500 nM

COc1cc2c(cc1-c1cnn(CCO)c1)-c1c(c(C(=O)N3CCOCC3(C)C)nn1-c1cc(F)cc(Cl)c1)CO2 [Compound 78, (1-(3-chloro-5-fluorophenyl)-8-(1-(2-hydroxyethyl)-1H-pyrazol-4-yl)-7-methoxy-1,4-dihydrochromeno[4,3-c]pyrazol-3-yl)(3,3-dimethylmorpholino)methanone]
EC50 [1]: < 10 nM | EC50 [2]: 10 to 100 nM
